Measurements taken from patent US12552775B2, “Compounds and uses thereof” (Foghorn Therapeutics Inc., priority 2020, dated 2026).

Legend:
[1] = molecular target: T1, HiBit-BRM fusion protein (Homo sapiens, UniProt P51531); experiment: HiBiT-BRM cell-based degradation assay (Nano-Glo HiBiT Lytic Detection, 24 h); settings: stable HeLa cell line expressing HiBiT-BRM, top dose 30 μM
T1 construct: expressed in transfected cells
Method: (§1) Procedure: A stable HeLa cell line expressing HiBiT-BRM was generated. On day 0, 5000 cells were seeded in 40 μL of media into each well of 384-well cell culture plates. On day 1, cells were treated with 120 nL DMSO or 120 nL of 3-fold serially DMSO-diluted compounds (10 points in duplicate with 30 μM as final top dose). Subsequently plates were incubated for 24 h in a standard tissue culture incubator and equilibrated at room temperature for 15 minutes. Nano-Glo HiBiT Lytic Detection System (Promega N3050) reagent was freshly prepared and 20 ul was added to each well. Upon addition of this LgBit-containing reagent, the HiBiT and LgBiT proteins associate to form the luminescent NanoBiT luciferase. The plates were shaken for 10 minutes at room temperature and the bioluminescence read using an EnVision plate reader (PerkinElmer).
(§2) The degradation % was calculated using the following formula: % degradation=100%−100%×(Lumsample−LumLC)/(LumHC−LumLC). DMSO treated cells are employed as High Control (HC) and 2 μM of a known BRM/BRG1 degrader standard treated cells are employed as Low Control (LC).

[2] = molecular target: T2, HiBit-BRG1 fusion protein (Homo sapiens, UniProt P51532); experiment: HiBiT-BRG1 cell-based degradation assay (Nano-Glo HiBiT Lytic Detection, 24 h); settings: stable HeLa cell line expressing HiBit-BRG1 and LgBit, top dose 30 μM, read-out: BRG1 HiBit Degradation Maximum (%)
T2 construct: expressed in transfected cells
T2 sequence (P51532 whole entry, the tested form may be a part): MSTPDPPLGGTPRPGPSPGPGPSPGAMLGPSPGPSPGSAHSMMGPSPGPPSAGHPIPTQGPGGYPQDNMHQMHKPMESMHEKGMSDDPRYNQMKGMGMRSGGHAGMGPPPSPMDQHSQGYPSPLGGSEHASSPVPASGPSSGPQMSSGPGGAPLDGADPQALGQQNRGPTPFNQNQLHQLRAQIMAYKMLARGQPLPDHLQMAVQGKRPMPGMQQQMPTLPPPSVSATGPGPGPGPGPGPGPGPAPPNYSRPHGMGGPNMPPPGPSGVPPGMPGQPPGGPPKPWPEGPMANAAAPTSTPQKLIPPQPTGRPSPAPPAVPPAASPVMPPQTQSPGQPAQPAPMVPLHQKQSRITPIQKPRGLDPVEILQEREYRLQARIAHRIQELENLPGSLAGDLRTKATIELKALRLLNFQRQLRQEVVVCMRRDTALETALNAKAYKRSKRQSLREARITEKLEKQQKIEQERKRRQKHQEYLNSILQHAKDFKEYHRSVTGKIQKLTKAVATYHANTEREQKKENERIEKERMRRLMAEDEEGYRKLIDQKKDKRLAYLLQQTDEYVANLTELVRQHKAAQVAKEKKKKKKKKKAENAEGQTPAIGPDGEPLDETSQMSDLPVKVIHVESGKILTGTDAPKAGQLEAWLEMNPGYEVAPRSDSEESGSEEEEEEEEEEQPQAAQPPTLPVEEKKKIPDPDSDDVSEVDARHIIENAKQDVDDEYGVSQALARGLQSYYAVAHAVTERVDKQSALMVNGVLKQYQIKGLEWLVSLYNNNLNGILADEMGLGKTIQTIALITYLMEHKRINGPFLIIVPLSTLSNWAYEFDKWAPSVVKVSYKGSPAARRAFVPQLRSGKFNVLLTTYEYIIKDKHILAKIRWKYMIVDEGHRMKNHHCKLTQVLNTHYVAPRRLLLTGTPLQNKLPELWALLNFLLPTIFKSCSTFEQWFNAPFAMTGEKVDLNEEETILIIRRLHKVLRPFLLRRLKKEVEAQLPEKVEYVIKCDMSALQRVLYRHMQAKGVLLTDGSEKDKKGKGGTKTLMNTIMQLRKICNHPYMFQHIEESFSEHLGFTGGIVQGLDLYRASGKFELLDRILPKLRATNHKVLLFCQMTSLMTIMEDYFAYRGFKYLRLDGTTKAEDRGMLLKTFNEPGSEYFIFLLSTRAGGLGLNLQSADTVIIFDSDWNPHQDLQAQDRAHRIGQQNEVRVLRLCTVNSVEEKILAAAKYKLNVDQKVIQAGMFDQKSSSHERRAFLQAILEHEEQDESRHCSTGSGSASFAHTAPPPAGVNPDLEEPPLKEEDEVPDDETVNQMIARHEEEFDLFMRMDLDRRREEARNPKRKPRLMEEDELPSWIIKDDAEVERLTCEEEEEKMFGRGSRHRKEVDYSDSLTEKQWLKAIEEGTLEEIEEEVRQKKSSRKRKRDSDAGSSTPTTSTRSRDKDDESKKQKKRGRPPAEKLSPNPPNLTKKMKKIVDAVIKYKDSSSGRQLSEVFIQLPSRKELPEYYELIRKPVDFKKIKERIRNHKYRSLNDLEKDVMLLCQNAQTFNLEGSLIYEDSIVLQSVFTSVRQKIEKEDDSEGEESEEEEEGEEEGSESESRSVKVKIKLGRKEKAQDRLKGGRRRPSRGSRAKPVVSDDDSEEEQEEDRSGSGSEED
Method: as §1
For measurement of BRG1 degradation, a stable HeLa cell line expressing HiBit-BRG1 and LgBit was generated. The same protocol as above was then followed.
as §2

T1 sequence (P51531 whole entry, the tested form may be a part): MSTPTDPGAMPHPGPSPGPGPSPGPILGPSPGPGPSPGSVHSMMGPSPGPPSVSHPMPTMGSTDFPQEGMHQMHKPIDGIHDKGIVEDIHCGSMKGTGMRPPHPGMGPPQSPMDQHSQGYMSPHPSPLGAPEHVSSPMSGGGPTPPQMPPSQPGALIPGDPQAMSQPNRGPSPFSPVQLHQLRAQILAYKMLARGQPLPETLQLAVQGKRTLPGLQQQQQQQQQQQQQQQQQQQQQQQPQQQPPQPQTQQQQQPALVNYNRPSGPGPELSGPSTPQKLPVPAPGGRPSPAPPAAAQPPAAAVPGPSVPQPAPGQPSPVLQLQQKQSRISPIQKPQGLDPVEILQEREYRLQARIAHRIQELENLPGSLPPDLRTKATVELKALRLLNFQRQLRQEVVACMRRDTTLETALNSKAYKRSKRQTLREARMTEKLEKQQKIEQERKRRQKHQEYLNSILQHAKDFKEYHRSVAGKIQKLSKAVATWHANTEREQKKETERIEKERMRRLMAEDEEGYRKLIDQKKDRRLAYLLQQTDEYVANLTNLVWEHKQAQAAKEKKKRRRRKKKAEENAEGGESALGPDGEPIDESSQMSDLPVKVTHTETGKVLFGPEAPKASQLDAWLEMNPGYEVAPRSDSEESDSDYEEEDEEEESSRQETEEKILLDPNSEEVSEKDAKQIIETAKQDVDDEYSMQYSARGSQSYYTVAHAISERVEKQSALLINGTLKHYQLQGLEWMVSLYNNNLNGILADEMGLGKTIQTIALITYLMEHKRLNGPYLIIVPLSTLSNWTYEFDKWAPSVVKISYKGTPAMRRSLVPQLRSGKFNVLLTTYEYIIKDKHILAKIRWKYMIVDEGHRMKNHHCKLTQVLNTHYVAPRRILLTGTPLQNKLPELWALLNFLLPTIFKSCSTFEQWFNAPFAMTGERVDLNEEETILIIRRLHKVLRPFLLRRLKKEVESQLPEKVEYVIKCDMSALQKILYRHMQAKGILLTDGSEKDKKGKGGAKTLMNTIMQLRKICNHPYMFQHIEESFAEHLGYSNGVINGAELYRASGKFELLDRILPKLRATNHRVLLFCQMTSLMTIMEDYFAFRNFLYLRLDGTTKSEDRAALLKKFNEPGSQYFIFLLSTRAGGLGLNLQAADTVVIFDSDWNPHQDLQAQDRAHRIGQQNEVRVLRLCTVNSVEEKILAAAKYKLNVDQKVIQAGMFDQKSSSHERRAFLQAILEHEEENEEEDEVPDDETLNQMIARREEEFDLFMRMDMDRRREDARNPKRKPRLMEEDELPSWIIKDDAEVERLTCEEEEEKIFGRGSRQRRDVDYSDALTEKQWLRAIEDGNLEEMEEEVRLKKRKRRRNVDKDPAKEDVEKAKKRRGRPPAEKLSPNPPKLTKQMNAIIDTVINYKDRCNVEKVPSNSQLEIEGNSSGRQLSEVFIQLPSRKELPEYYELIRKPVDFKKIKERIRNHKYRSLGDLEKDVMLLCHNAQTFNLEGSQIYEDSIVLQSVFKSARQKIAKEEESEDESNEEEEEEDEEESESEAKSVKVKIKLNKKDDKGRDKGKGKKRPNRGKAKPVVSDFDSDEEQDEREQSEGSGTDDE

| SMILES | Dmax [2] | BRM HiBit Degradation Maximum (%) [1] |
| --- | --- | --- |
| Nc1nnc(-c2ccccc2O)cc1OCC12CC(CNC(=O)CCCCCCCOc3cccc4c3C(=O)N(C3CCC(=O)NC3=O)C4=O)(C1)C2 (stereo not shown) [Compound 5, N-[[3-([[3-amino-6-(2-hydroxyphenyl)pyridazin-4-yl]oxy]methyl)bicyclo[1.1.1]pentan-1-yl]methyl]-8-[[2-(2,6-dioxopiperidin-3-yl)-1,3-dioxoisoindol-4-yl]oxy]octanamide] | < 50% | C (“C” indicates maximum degradation < 50%) |
| Nc1nnc(-c2ccccc2O)cc1OCCC12CC(NC(=O)CCOCCOCCOc3ccc4c(c3)C(=O)N(C3CCC(=O)NC3=O)C4=O)(C1)C2 (stereo not shown) [Compound 31, N-(3-(2-((3-amino-6-(2-hydroxyphenyl)pyridazin-4-yl)oxy)ethyl)bicyclo[1.1.1]pentan-1-yl)-3-(2-(2-((2-(2,6-dioxopiperidin-3-yl)-1,3-dioxoisoindolin-5-yl)oxy)ethoxy)ethoxy)propanamide] | < 50% | C (“C” indicates maximum degradation < 50%) |
| Cc1nc2cccc(NCCCCCCNC(=O)C34CC(COc5cc(-c6ccccc6O)nnc5N)(C3)C4)c2c(=O)n1C1CCC(=O)NC1=O (stereo not shown) [Compound 67, 3-(((3-amino-6-(2-hydroxyphenyl)pyridazin-4-yl)oxy)methyl)-N-(6-((3-(2,6-dioxopiperidin-3-yl)-2-methyl-4-oxo-3,4-dihydroquinazolin-5-yl)amino)hexyl)bicyclo[1.1.1]pentane-1-carboxamide] | < 50% | C (“C” indicates maximum degradation < 50%) |
| Nc1nnc(-c2ccccc2O)cc1OCCC12CC(NC(=O)CCCCCCCCNc3ccc4c(c3)C(=O)N(C3CCC(=O)NC3=O)C4=O)(C1)C2 (stereo not shown) [Compound 25, N-[3-(2-[[3-amino-6-(2-hydroxyphenyl)pyridazin-4-yl]oxy]ethyl)bicyclo[1.1.1]pentan-1-yl]-9-[[2-(2,6-dioxopiperidin-3-yl)-1,3-dioxoisoindol-5-yl]amino]nonanamide] | < 50% | C (“C” indicates maximum degradation < 50%) |
| Nc1nnc(-c2ccccc2O)cc1OCC12CC(C(=O)NCCCCCCCCNc3ccc4c(c3)C(=O)N(C3CCC(=O)NC3=O)C4=O)(C1)C2 (stereo not shown) [Compound 65, 3-(((3-amino-6-(2-hydroxyphenyl)pyridazin-4-yl)oxy)methyl)-N-(8-((2-(2,6-dioxopiperidin-3-yl)-1,3-dioxoisoindolin-5-yl)amino)octyl)bicyclo[1.1.1]pentane-1-carboxamide] | < 50% | C (“C” indicates maximum degradation < 50%) |
| Nc1nnc(-c2ccccc2O)cc1OCC12CC(CNC(=O)CCCCCCCCNc3ccc4c(c3)C(=O)N(C3CCC(=O)NC3=O)C4=O)(C1)C2 (stereo not shown) [Compound 9, N-[[3-([[3-amino-6-(2-hydroxyphenyl)pyridazin-4-yl]oxy]methyl)bicyclo[1.1.1]pentan-1-yl]methyl]-9-[[2-(2,6-dioxopiperidin-3-yl)-1,3-dioxoisoindol-5-yl]amino]nonanamide] | < 50% | C (“C” indicates maximum degradation < 50%) |
| Nc1nnc(-c2ccccc2O)cc1OCCC12CC(NC(=O)CCCCCCCCCCNc3cccc4c3C(=O)N(C3CCC(=O)NC3=O)C4=O)(C1)C2 (stereo not shown) [Compound 24, N-[3-(2-[[3-amino-6-(2-hydroxyphenyl)pyridazin-4-yl]oxy]ethyl)bicyclo[1.1.1]pentan-1-yl]-11-[[2-(2,6-dioxopiperidin-3-yl)-1,3-dioxoisoindol-4-yl]amino]undecanamide] | < 50% | C (“C” indicates maximum degradation < 50%) |
| Nc1nnc(-c2ccccc2O)cc1OCC12CC(C(=O)N3CCN(CCCC#Cc4ccc5c(c4)C(=O)N(C4CCC(=O)NC4=O)C5=O)CC3)(C1)C2 (stereo not shown) [Compound 51, 5-(5-(4-(3-(((3-amino-6-(2-hydroxyphenyl)pyridazin-4-yl)oxy)methyl)bicyclo[1.1.1]pentane-1-carbonyl)piperazin-1-yl)pent-1-yn-1-yl)-2-(2,6-dioxopiperidin-3-yl)isoindoline-1,3-dione] | < 50% | C (“C” indicates maximum degradation < 50%) |

Second part, led by results:

| Dmax [2] | SMILES | BRM HiBit Degradation Maximum (%) [1] |
| --- | --- | --- |
| < 50% | Nc1nnc(-c2ccccc2O)cc1OCC12CC(C(=O)NCCS(=O)(=O)CCNc3cccc4c3C(=O)N(C3CCC(=O)NC3=O)C4=O)(C1)C2 (stereo not shown) [Compound 74, 3-(((3-amino-6-(2-hydroxyphenyl)pyridazin-4-yl)oxy)methyl)-N-(2-((2-((2-(2,6-dioxopiperidin-3-yl)-1,3-dioxoisoindolin-4-yl)amino)ethyl)sulfonyl)ethyl)bicyclo[1.1.1]pentane-1-carboxamide] | C (“C” indicates maximum degradation < 50%) |
| < 50% | Nc1nnc(-c2ccccc2O)cc1OCC12CC(C(=O)NCCOc3cccc(OCCNc4cccc5c4C(=O)N(C4CCC(=O)NC4=O)C5=O)c3)(C1)C2 (stereo not shown) [Compound 83, 3-(((3-amino-6-(2-hydroxyphenyl)pyridazin-4-yl)oxy)methyl)-N-(2-(3-(2-((2-(2,6-dioxopiperidin-3-yl)-1,3-dioxoisoindolin-4-yl)amino)ethoxy)phenoxy)ethyl)bicyclo[1.1.1]pentane-1-carboxamide] | C (“C” indicates maximum degradation < 50%) |
| < 50% | CN(CCNC(=O)COc1cccc2c1C(=O)N(C1CCC(=O)NC1=O)C2=O)CCNC(=O)C12CC(COc3cc(-c4ccccc4O)nnc3N)(C1)C2 (stereo not shown) [Compound 75, 3-(((3-amino-6-(2-hydroxyphenyl)pyridazin-4-yl)oxy)methyl)-N-(2-((2-(2-((2-(2,6-dioxopiperidin-3-yl)-1,3-dioxoisoindolin-4-yl)oxy)acetamido)ethyl)(methyl)amino)ethyl)bicyclo[1.1.1]pentane-1-carboxamide] | C (“C” indicates maximum degradation < 50%) |
| < 50% | Nc1nnc(-c2ccccc2O)cc1OCC12CC(C(=O)NCCCCS(=O)(=O)CCCNc3cccc4c3C(=O)N(C3CCC(=O)NC3=O)C4=O)(C1)C2 (stereo not shown) [Compound 73, 3-(((3-amino-6-(2-hydroxyphenyl)pyridazin-4-yl)oxy)methyl)-N-(4-((3-((2-(2,6-dioxopiperidin-3-yl)-1,3-dioxoisoindolin-4-yl)amino)propyl)sulfonyl)butyl)bicyclo[1.1.1]pentane-1-carboxamide] | C (“C” indicates maximum degradation < 50%) |
| < 50% | Nc1nnc(-c2ccccc2O)cc1OCC12CC(C(=O)N3CC(Oc4ccc5c(c4)C(=O)N(C4CCC(=O)NC4=O)C5=O)C3)(C1)C2 (stereo not shown) [Compound 96, 5-((1-(3-(((3-amino-6-(2-hydroxyphenyl)pyridazin-4-yl)oxy)methyl)bicyclo[1.1.1]pentane-1-carbonyl)azetidin-3-yl)oxy)-2-(2,6-dioxopiperidin-3-yl)isoindoline-1,3-dione] | C (“C” indicates maximum degradation < 50%) |
| < 50% | Nc1nnc(-c2ccccc2O)cc1OCC12CC(C(=O)N3CCN(CCCOc4ccc5c(c4)C(=O)N(C4CCC(=O)NC4=O)C5=O)CC3)(C1)C2 (stereo not shown) [Compound 97, 5-(3-(4-(3-(((3-amino-6-(2-hydroxyphenyl)pyridazin-4-yl)oxy)methyl)bicyclo[1.1.1]pentane-1-carbonyl)piperazin-1-yl)propoxy)-2-(2,6-dioxopiperidin-3-yl)isoindoline-1,3-dione; formic acid] | C (“C” indicates maximum degradation < 50%) |
